Measured values from ChEMBL document CHEMBL1153451, “Novel aminopeptidase N inhibitors derived from antineoplaston AS2-5 (Part I)” (Bioorg Med Chem, 2009).
Calls of active or inactive are those of the source. No cut-off for these calls is given here.

Experiments:
[1] = target: T1, Aminopeptidase N (Sus scrofa, UniProt P15145); test: (§1) Inhibition of pig kidney microsome aminopeptidase N by UV-visible spectrophotometer
T1 sequence (P15145 whole entry): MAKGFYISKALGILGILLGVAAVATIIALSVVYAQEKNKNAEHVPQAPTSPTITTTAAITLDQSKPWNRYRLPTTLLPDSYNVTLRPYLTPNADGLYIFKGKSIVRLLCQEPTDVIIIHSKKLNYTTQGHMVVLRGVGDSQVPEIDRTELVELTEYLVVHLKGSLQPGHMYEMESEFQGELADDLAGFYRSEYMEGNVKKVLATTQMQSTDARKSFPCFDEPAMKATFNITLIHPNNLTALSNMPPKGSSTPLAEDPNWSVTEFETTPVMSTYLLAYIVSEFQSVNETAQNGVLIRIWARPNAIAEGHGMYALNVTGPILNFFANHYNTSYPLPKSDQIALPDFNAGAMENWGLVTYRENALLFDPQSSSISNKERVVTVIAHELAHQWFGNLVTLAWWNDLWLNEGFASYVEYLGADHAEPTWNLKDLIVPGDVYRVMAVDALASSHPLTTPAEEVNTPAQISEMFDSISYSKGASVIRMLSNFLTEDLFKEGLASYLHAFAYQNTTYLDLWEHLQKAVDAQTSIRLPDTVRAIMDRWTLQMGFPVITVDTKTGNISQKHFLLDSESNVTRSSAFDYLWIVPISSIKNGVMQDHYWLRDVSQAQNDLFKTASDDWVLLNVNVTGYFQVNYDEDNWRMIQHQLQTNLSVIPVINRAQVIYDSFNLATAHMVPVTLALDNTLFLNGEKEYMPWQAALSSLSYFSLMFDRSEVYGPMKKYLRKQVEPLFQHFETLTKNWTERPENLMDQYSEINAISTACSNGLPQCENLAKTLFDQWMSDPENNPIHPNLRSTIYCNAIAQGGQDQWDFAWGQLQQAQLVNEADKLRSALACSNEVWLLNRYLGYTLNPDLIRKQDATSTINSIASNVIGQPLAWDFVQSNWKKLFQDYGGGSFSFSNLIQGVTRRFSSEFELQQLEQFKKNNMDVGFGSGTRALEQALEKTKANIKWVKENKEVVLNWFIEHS

[2] = target: 72 kDa type IV collagenase (Homo sapiens, UniProt P08253); test: Inhibition of MMP2 by spectrophotometry
[3] = target: T2, Aminopeptidase N (Sus scrofa) (UniProt P15145); test: as §1
T2 sequence (whole entry): T1 sequence (P15145 whole entry)

SMILES	IC50 [1] [µM]	IC50 [2] [µM]	Activity [3]	Activity [2]
CC(C)C[C@H](NC(=O)[C@@H](O)[C@H](N)Cc1ccccc1)C(=O)O [UBENIMEX]		40.5		
COc1cc(C(=O)N[C@H](CCC(=O)O)C(=O)NCc2ccc(Cl)cc2F)cc(OC)c1OC	45.6	52.8		
COc1cc(C(=O)N[C@H](CCC(=O)O)C(=O)NCc2ccc(Br)cc2F)cc(OC)c1OC	51.2	76.1		
COc1cc(C(=O)N[C@H](CCC(=O)O)C(=O)Nc2ccc(C(=O)O)c(O)c2)cc(OC)c1OC	57.8	86.3		
COc1cc(C(=O)N[C@H](CCC(=O)O)C(=O)Nc2cc(Cl)ccc2Cl)cc(OC)c1OC	80.4	122		
COc1cc(C(=O)N[C@H](CCC(=O)O)C(=O)NCc2cccc(Br)c2)cc(OC)c1OC	177	287		
COc1cc(C(=O)N[C@H](CCC(=O)O)C(=O)NCc2cccc(I)c2)cc(OC)c1OC	65.9	76.8		
COc1cc(C(=O)NC2CCC(=O)N(c3ccccc3N)C2=O)cc(OC)c1OC (stereo not drawn)	104	660		
COc1cc(C(=O)N[C@H](CCC(=O)O)C(=O)NCCCl)cc(OC)c1OC	805	501		
COc1cc(C(=O)N[C@H](CCC(=O)O)C(=O)Nc2ccc(F)cc2F)cc(OC)c1OC	89.6	109		
COc1cc(C(=O)N[C@H](CCC(=O)O)C(=O)NNC(=O)c2cccnc2)cc(OC)c1OC	72.4	115		

Results, then the compound that gave them:

IC50 [1] [µM]	IC50 [2] [µM]	Activity [3]	Activity [2]	SMILES
23.4	33.6			COc1cc(C(=O)N[C@H](CCC(=O)O)C(=O)Nc2ccc(N)cc2)cc(OC)c1OC
40	52.3			COc1cc(C(=O)N[C@H](CCC(=O)O)C(=O)Nc2ccc(Cl)cc2)cc(OC)c1OC
24.3	26.1			COc1cc(C(=O)N[C@H](CCC(=O)O)C(=O)Nc2ccc(F)cc2)cc(OC)c1OC
65.8	71.2			COc1cc(C(=O)N[C@H](CCC(=O)O)C(=O)Nc2ccc(C(=O)O)cc2)cc(OC)c1OC
108	369			COc1cc(C(=O)N[C@H](CCC(=O)O)C(=O)Nc2nccs2)cc(OC)c1OC
41.9	54.4			COc1cc(C(=O)N[C@H](CCC(=O)O)C(=O)Nc2ccc(Br)cc2)cc(OC)c1OC
103	628			COc1cc(C(=O)N[C@H](CCC(=O)O)C(=O)Nc2ccc(S(N)(=O)=O)cc2)cc(OC)c1OC
87.7	169			COc1cc(C(=O)N[C@H](CCC(=O)O)C(=O)NNC(=O)c2nccs2)cc(OC)c1OC
		inactive	inactive	COc1cc(C(=O)N[C@H](CCC(=O)O)C(=O)Nc2ccc([N+](=O)[O-])cc2)cc(OC)c1OC
40.1	55.3			COc1cc(C(=O)N[C@H](CCC(=O)O)C(=O)Nc2ccc(S(=O)(=O)Nc3nccs3)cc2)cc(OC)c1OC
78.5	107			COc1cc(C(=O)N[C@H](CCC(=O)O)C(=O)Nc2ccc(F)c(Cl)c2)cc(OC)c1OC
